According to patent US8367838B2, “Amines or amino alcohols as GLYT1 inhibitors” (Hoffmann-La Roche Inc., priority 2009, dated 2013):
Where a name gives a salt, the structure may show the parent alone.

Each molecule was assayed against T1, mGlyT-1b (Mus musculus, UniProt P28571) (assay: Glycine uptake inhibition assay (mGlyT-1b), [3H]-glycine uptake in transfected Flp-in-CHO cells). Conditions: Flp-in-CHO cells transfected with mGlyT-1b cDNA; [3H]-glycine 60 nM and 25 μM non-radioactive glycine; 20 min preincubation at 22° C.; read-out: IC50 (μM) at GlyT-1; Ic50 (hglyt1b).
T1 construct: host or cells: Flp-in-CHO
T1 sequence (P28571 1-651 isoform P28571-2): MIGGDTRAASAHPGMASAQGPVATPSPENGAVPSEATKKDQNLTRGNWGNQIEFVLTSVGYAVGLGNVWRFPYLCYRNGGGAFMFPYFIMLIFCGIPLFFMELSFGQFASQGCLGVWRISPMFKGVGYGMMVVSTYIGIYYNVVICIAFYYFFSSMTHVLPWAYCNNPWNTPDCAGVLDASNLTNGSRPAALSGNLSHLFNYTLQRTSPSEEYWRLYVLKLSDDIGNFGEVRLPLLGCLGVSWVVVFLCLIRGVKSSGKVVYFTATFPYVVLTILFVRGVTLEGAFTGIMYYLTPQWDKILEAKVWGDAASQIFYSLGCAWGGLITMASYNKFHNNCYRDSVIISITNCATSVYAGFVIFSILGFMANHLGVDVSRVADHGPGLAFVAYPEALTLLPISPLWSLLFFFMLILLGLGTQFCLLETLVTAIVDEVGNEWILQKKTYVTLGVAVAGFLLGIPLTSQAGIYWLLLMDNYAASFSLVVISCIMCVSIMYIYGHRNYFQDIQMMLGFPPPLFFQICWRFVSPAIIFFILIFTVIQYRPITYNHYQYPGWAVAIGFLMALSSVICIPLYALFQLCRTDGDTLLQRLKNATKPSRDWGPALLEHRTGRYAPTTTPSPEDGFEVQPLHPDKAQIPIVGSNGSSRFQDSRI
Assay type: cell-based
Protocol: Nutrient mixture F-12 (Gibco Life-technologies), fetal bovine serum (FBS) 5%, (Gibco life technologies), Penicillin/Streptomycin 1% (Gibco life technologies), Hygromycin 0.6 mg/ml (Gibco life technologies), Glutamine 1 mM Gibco life technologies).
150 mM NaCl, 10 mM Hepes-Tris, pH 7.4, 1 mM CaCl2, 2.5 mM KCl, 2.5 mM MgSO4, 10 mM (+) D-glucose. Flp-in™-CHO (Invitrogen Cat n° R758-07) cells stably transfected with mGlyT1b cDNA.
Glycine Uptake Inhibition Assay (mGlyT-1b)
On day 1 mammalian cells, (Flp-in™-CHO), transfected with mGlyT-1b cDNA, were plated at the density of 40,000 cells/well in complete F-12 medium, without hygromycin in 96-well culture plates. On day 2, the medium was aspirated and the cells were washed twice with uptake buffer (UB). The cells were then incubated for 20 min at 22° C. with either (i) no potential competitor, (ii) 10 mM non-radioactive glycine, (iii) a concentration of a potential inhibitor. A range of concentrations of the potential inhibitor was used to generate data for calculating the concentration of inhibitor resulting in 50% of the effect (e.g. IC50, the concentration of the competitor inhibiting glycine uptake of 50%). A solution was then immediately added containing [^3H]-glycine 60 nM (11-16 Ci/mmol) and 25 μM non-radioactive glycine. The plates were incubated with gentle shaking and the reaction was stopped by aspiration of the mixture and washing (three times) with ice-cold UB. The cells were lysed with scintillation liquid, shaken 3 hours and the radioactivity in the cells was counted using a scintillation counter.
`N[C@@H](c1ccc(Cl)c(Cl)c1)[C@H](O)c1ccc(OC2CCOC2)cc1` (mixture of isomers) [Example 42, rac-erythro-[rac-2-Amino-2-(3,4-dichloro-phenyl)-1-[4-(tetrahydro-furan-3-yloxy)-phenyl]-ethanol] was tested, and the IC50 was 0.052 µM.
`N[C@@H](c1ccc(Cl)c(Cl)c1)[C@H](O)c1ccc(OC2CCOCC2)cc1F` (racemic) [Example 33, rac-erythro-[2-Amino-2-(3,4-dichloro-phenyl)-1-[2-fluoro-4-(tetrahydro-pyran-4-yloxy)-phenyl]-ethanol hydrochloride] showed an IC50 of 0.036 µM.
In the case of `CS(=O)(=O)c1cccc(-c2ccc([C@@H](O)[C@@H](N)c3ccc(Cl)cc3)cc2)c1` (racemic) [Example 62, rac-erythro-2-Amino-2-(4-chloro-phenyl)-1-(3′-methanesulfonyl-biphenyl-4-yl)-ethanol], the IC50 is reported as 0.068 µM.
For `N[C@@H](c1ccc(Cl)c(Cl)c1)[C@H](O)c1ccc(Oc2ccccc2)cc1` (racemic) [Example 100, rac-erythro-2-Amino-2-(3,4-dichloro-phenyl)-1-(4-phenoxy-phenyl)-ethanol], the IC50 was 0.323 µM.
Work on `Cc1cc(-c2cncc(F)c2)ccc1[C@@H](O)[C@@H](N)c1ccc(Cl)c(Cl)c1` (racemic) [Example 2, rac-erythro-[2-Amino-2-(3,4-dichloro-phenyl)-1-[4-(5-fluoro-pyridin-3-yl)-2-methyl-phenyl]]-ethanol dihydrochloride] yielded an IC50 of 0.063 µM.
With `N[C@@H](c1ccc(Cl)cc1)[C@H](O)c1ccc(-c2ccncc2)cc1` (racemic) [Example 61, rac-erythro-2-Amino-2-(4-chloro-phenyl)-1-(4-pyridin-4-yl-phenyl)-ethanol] the IC50 was 0.06 µM.
Work on `CS(=O)(=O)c1cccc(-c2cccc([C@@H](O)[C@@H](N)c3ccc(Cl)c(Cl)c3)c2)c1` (racemic) [Example 5, rac-erythro-[2-Amino-2-(3,4-dichloro-phenyl)-1-(3′-methanesulfonyl-biphenyl-3-yl)-ethanol trifluoroacetate] yielded an IC50 of 0.615 µM.
Work on `N[C@@H](c1ccc(Cl)c(Cl)c1)[C@H](O)c1ccc(OC2CCOC2)nc1` (mixture of isomers) [Example 19, rac-erythro-[rac-2-Amino-2-(3,4-dichloro-phenyl)-1-[6-(tetrahydro-furan-3-yloxy)-pyridin-3-yl]-ethanoldihydrochloride] yielded an IC50 of 0.082 µM.
In the case of `CCO[C@H](c1ccc(-c2cncc(F)c2)cc1)[C@@H](N)c1ccc(Cl)c(Cl)c1` (racemic) [Example 99, rac-erythro-[1-(3,4-Dichloro-phenyl)-2-ethoxy-2-[4-(5-fluoro-pyridin-3-yl)-phenyl]-ethylamine trifluoroacetate], the IC50 is reported as 0.285 µM.
`Cc1ccc([C@H](N)[C@H](O)c2ccc(-c3cccnc3)cc2)cc1F` (racemic) [Example 91, rac-erythro-2-Amino-2-(3-fluoro-4-methyl-phenyl)-1-(4-pyridin-3-yl-phenyl)-ethanol] gave an IC50 of 0.073 µM.
`Cc1cccc(-c2ccc([C@@H](O)[C@@H](N)c3ccc(Cl)cc3)cc2)c1` (racemic) [Example 71, rac-erythro-2-Amino-2-(4-chloro-phenyl)-1-(3′-methyl-biphenyl-4-yl)-ethanol] showed an IC50 of 0.342 µM.
`CC1(COc2ccc([C@@H](O)[C@@H](N)c3ccc(Cl)c(Cl)c3)c(F)c2)COC1` (racemic) [Example 34, rac-erythro-[2-Amino-2-(3,4-dichloro-phenyl)-1-[2-fluoro-4-(3-methyl-oxetan-3-ylmethoxy)-phenyl]-ethanol] gave an IC50 of 0.023 µM.
`N[C@@H](c1ccc(C(F)(F)F)cc1)[C@H](O)c1ccc(-c2cccnc2)cc1` (racemic) [Example 88, rac-erythro-2-Amino-1-(4-pyridin-3-yl-phenyl)-2-(4-trifluoromethyl-phenyl)-ethanol] showed an IC50 of 0.255 µM.
`N[C@@H](c1ccc(Cl)cc1)[C@H](O)c1ccc(-c2ccsc2)cc1` (racemic) [Example 70, rac-erythro-2-Amino-2-(4-chloro-phenyl)-1-(4-thiophen-3-yl-phenyl)-ethanol] showed an IC50 of 0.297 µM.
Molecule `Cc1nc(C)c(-c2ccc([C@@H](O)[C@@H](N)c3ccc(Cl)cc3)cc2)s1` (racemic) [Example 75, rac-erythro-2-Amino-2-(4-chloro-phenyl)-1-[4-(2,4-dimethyl-thiazol-5-yl)-phenyl]-ethanol] has an IC50 of 0.582 µM.
Molecule `CC(CO)(CCl)COc1ccc([C@@H](O)[C@@H](N)c2ccc(Cl)c(Cl)c2)cc1` (mixture of isomers) [Example 43, rac-erythro-[2-Amino-2-(3,4-dichloro-phenyl)-1-hydroxy-ethyl]-phenoxy]-2-chloromethyl-2-methyl-propan-1-ol hydrochloride] has an IC50 of 0.053 µM.
Work on `COc1cc([C@@H](O)[C@@H](N)c2ccc(Cl)c(Cl)c2)ccc1-c1cncc(F)c1` (racemic) [Example 3, rac-erythro-[2-Amino-2-(3,4-dichloro-phenyl)-1-[4-(5-fluoro-pyridin-3-yl)-3-methoxy-phenyl]-ethanoldihydrochloride] yielded an IC50 of 0.186 µM.
With `N[C@@H](c1ccc(Cl)cc1F)[C@H](O)c1ccc(-c2cccnc2)cc1` (racemic) [Example 97, rac-erythro-2-Amino-2-(4-chloro-2-fluoro-phenyl)-1-(4-pyridin-3-yl-phenyl)-ethanol] the IC50 was 0.267 µM.
`COc1cncc(-c2ccc([C@@H](O)[C@@H](N)c3ccc(Cl)cc3)cc2)c1` (racemic) [Example 64, rac-erythro-2-Amino-2-(4-chloro-phenyl)-1-[4-(5-methoxy-pyridin-3-yl)-phenyl]-ethanol] was tested, and the IC50 was 0.138 µM.
`CCC(C)Oc1ccc([C@@H](O)[C@@H](N)c2ccc(Cl)c(Cl)c2)cc1` (mixture of isomers) [Example 51, rac-erythro-2-Amino-1-(4-sec-butoxy-phenyl)-2-(3,4-dichloro-phenyl)-ethanol] was tested, and the IC50 was 0.72 µM.
For `COc1ccc(-c2ccc([C@@H](O)[C@@H](N)c3ccc(Cl)cc3)cc2)cn1` (racemic) [Example 77, rac-erythro-2-Amino-2-(4-chloro-phenyl)-1-[4-(6-methoxy-pyridin-3-yl)-phenyl]-ethanol], the IC50 was 0.814 µM.
`N[C@@H](c1ccc(Cl)c(Cl)c1)[C@H](O)c1ccc(OCC2CCCO2)cc1F` (mixture of isomers) [Example 28, rac-erythro-[2-Amino-2-(3,4-dichloro-phenyl)-1-[2-fluoro-4-(tetrahydro-furan-2-ylmethoxy)-phenyl]-ethanol, hydrochloride salt] showed an IC50 of 0.33 µM.
For `N[C@@H](c1ccc(Cl)cc1)[C@H](O)c1ccc(OC(CF)CF)cc1` (racemic) [Example 58, rac-erythro-2-Amino-2-(4-chloro-phenyl)-1-[4-(2-fluoro-1-fluoromethyl-ethoxy)-phenyl]-ethanol], the IC50 was 0.478 µM.
`COc1cccc(-c2ccc([C@@H](O)[C@@H](N)c3ccc(Cl)cc3)cc2)c1` (racemic) [Example 72, rac-erythro-2-Amino-2-(4-chloro-phenyl)-1-(3′-methoxy-biphenyl-4-yl)-ethanol] gave an IC50 of 0.385 µM.
With `Cc1cc([C@@H](O)[C@@H](N)c2ccc(Cl)c(Cl)c2)cnc1OC1CCOCC1` (racemic) [Example 26, rac-erythro-[2-Amino-2-(3,4-dichloro-phenyl)-1-[5-methyl-6-(tetrahydro-pyran-4-yloxy)-pyridin-3-yl]-ethanoldihydrochloride] the IC50 was 0.239 µM.
`N[C@@H](c1ccc(Cl)c(Cl)c1)[C@H](O)c1ccc(-c2cncc(F)c2)cc1` (single isomer, unassigned) [Example 8, (1R,2S or 1S,2R)-2-Amino-2-(3,4-dichloro-phenyl)-1-[4-(5-fluoro-pyridin-3-yl)-phenyl]-ethanol trifluoroacetate] showed an IC50 of 0.059 µM.
`Cc1ccc([C@H](N)[C@H](O)c2ccc(OC3CCOC3)cc2)cc1Cl` (mixture of isomers) [Example 55, rac-erythro-[2-Amino-2-(3-chloro-4-methyl-phenyl)-1-[4-(tetrahydro-furan-3-yloxy)-phenyl]-ethanol] gave an IC50 of 0.131 µM.
`CC(C)Oc1ccc(F)c(-c2ccc([C@@H](O)[C@@H](N)c3ccc(Cl)c(Cl)c3)cc2)c1` (racemic) [Example 105, rac-erythro-2-Amino-2-(3,4-dichloro-phenyl)-1-(2′-fluoro-5′-isopropoxy-biphenyl-4-yl)-ethanol] gave an IC50 of 0.567 µM.
